Experimental data from the NIST ThermoML archive (doi:10.1021/je050010l).
± gives the expanded uncertainty stated by the source.

Legend:
[1] = refractive index (Na D-line) (dimensionless); xn = mol fraction of the nth substance listed; conditions: 100.8 kPa, Liquid, Standard Abbe refractometry
[2] = xn = mol fraction of the nth substance listed; conditions: 100.8 kPa, Liquid; for viscosity: Capillary tube (Ostwald / Ubbelohde) method

CC(C)CC(C)(C)C [2,2,4-trimethylpentane] + CC(C)=O
Conditions | mass density, 288.15 K [kg/m3] | mass density, 298.15 K [kg/m3] | mass density, 308.15 K [kg/m3] | refractive index, 288.15 K | refractive index, 298.15 K | refractive index, 308.15 K | viscosity, 288.15 K [mPa·s] | viscosity, 298.15 K [mPa·s] | viscosity, 308.15 K [mPa·s]
[1], x2 = 0 | – | – | – | 1.39404 ± 0.00031 | 1.389 ± 0.00031 | 1.38395 ± 0.00031 | – | – | –
[1], x2 = 0.0499 | – | – | – | 1.39283 ± 0.00031 | 1.38765 ± 0.00031 | 1.38256 ± 0.00031 | – | – | –
[1], x2 = 0.1 | – | – | – | 1.39158 ± 0.00031 | 1.38634 ± 0.00031 | 1.38119 ± 0.00031 | – | – | –
[1], x2 = 0.15 | – | – | – | 1.39031 ± 0.00031 | 1.38501 ± 0.00031 | 1.37981 ± 0.00031 | – | – | –
[1], x2 = 0.2 | – | – | – | 1.38905 ± 0.00031 | 1.38374 ± 0.00031 | 1.37848 ± 0.00031 | – | – | –
[1], x2 = 0.25 | – | – | – | 1.38769 ± 0.00031 | 1.3824 ± 0.00031 | 1.3771 ± 0.00031 | – | – | –
[1], x2 = 0.3 | – | – | – | 1.3864 ± 0.00031 | 1.3811 ± 0.00031 | 1.37574 ± 0.00031 | – | – | –
[1], x2 = 0.35 | – | – | – | 1.38509 ± 0.00031 | 1.37975 ± 0.00031 | 1.37434 ± 0.00031 | – | – | –
[1], x2 = 0.4 | – | – | – | 1.38374 ± 0.00031 | 1.37833 ± 0.00031 | 1.3729 ± 0.00031 | – | – | –
[1], x2 = 0.45 | – | – | – | 1.38233 ± 0.00031 | 1.37687 ± 0.00031 | 1.37142 ± 0.00031 | – | – | –
[1], x2 = 0.5 | – | – | – | 1.38086 ± 0.00031 | 1.37538 ± 0.00031 | 1.36989 ± 0.00031 | – | – | –
[1], x2 = 0.55 | – | – | – | 1.37934 ± 0.00031 | 1.37379 ± 0.00031 | 1.36831 ± 0.00031 | – | – | –
[1], x2 = 0.6 | – | – | – | 1.37774 ± 0.00031 | 1.37219 ± 0.00031 | 1.36666 ± 0.00031 | – | – | –
[1], x2 = 0.65 | – | – | – | 1.37606 ± 0.00031 | 1.3705 ± 0.00031 | 1.36495 ± 0.00031 | – | – | –
[1], x2 = 0.7 | – | – | – | 1.3743 ± 0.00031 | 1.3687 ± 0.00031 | 1.36314 ± 0.00031 | – | – | –
[1], x2 = 0.75 | – | – | – | 1.37243 ± 0.00031 | 1.36683 ± 0.00031 | 1.36126 ± 0.00031 | – | – | –
[1], x2 = 0.8 | – | – | – | 1.37045 ± 0.00031 | 1.36486 ± 0.00031 | 1.35931 ± 0.00031 | – | – | –
[1], x2 = 0.85 | – | – | – | 1.36839 ± 0.00031 | 1.36279 ± 0.00031 | 1.35726 ± 0.00031 | – | – | –
[1], x2 = 0.9 | – | – | – | 1.36624 ± 0.00031 | 1.36064 ± 0.00031 | 1.3551 ± 0.00031 | – | – | –
[1], x2 = 0.95 | – | – | – | 1.36394 ± 0.00031 | 1.35838 ± 0.00031 | 1.35285 ± 0.00031 | – | – | –
[2], x2 = 0 | 695.95 ± 0.31 | 687.74 ± 0.31 | 679.41 ± 0.32 | – | – | – | 0.537 ± 0.005 | 0.48 ± 0.004 | 0.432 ± 0.004
[2], x2 = 0.0499 | 697.34 ± 0.31 | 688.89 ± 0.31 | 680.44 ± 0.32 | – | – | – | 0.519 ± 0.005 | 0.465 ± 0.004 | 0.42 ± 0.004
[2], x2 = 0.1 | 698.86 ± 0.31 | 690.36 ± 0.31 | 681.77 ± 0.32 | – | – | – | 0.505 ± 0.004 | 0.452 ± 0.004 | 0.408 ± 0.004
[2], x2 = 0.15 | 700.68 ± 0.3 | 692.07 ± 0.31 | 683.36 ± 0.32 | – | – | – | 0.492 ± 0.004 | 0.44 ± 0.004 | 0.397 ± 0.004
[2], x2 = 0.2 | 702.68 ± 0.3 | 693.98 ± 0.31 | 685.16 ± 0.31 | – | – | – | 0.479 ± 0.004 | 0.429 ± 0.004 | 0.387 ± 0.004
[2], x2 = 0.25 | 705.09 ± 0.3 | 696.24 ± 0.31 | 687.26 ± 0.31 | – | – | – | 0.468 ± 0.004 | 0.419 ± 0.004 | 0.378 ± 0.003
[2], x2 = 0.3 | 707.68 ± 0.3 | 698.7 ± 0.3 | 689.56 ± 0.31 | – | – | – | 0.456 ± 0.004 | 0.409 ± 0.004 | 0.369 ± 0.003
[2], x2 = 0.35 | 710.55 ± 0.29 | 701.44 ± 0.3 | 692.21 ± 0.31 | – | – | – | 0.446 ± 0.004 | 0.399 ± 0.004 | 0.361 ± 0.003
[2], x2 = 0.4 | 713.76 ± 0.29 | 704.51 ± 0.3 | 695.1 ± 0.31 | – | – | – | 0.436 ± 0.004 | 0.39 ± 0.004 | 0.353 ± 0.003
[2], x2 = 0.45 | 717.31 ± 0.29 | 707.86 ± 0.3 | 698.29 ± 0.3 | – | – | – | 0.426 ± 0.004 | 0.382 ± 0.004 | 0.346 ± 0.003
[2], x2 = 0.5 | 721.15 ± 0.29 | 711.61 ± 0.29 | 701.91 ± 0.3 | – | – | – | 0.416 ± 0.004 | 0.374 ± 0.003 | 0.338 ± 0.003
[2], x2 = 0.55 | 725.46 ± 0.28 | 715.73 ± 0.29 | 705.86 ± 0.3 | – | – | – | 0.407 ± 0.004 | 0.366 ± 0.003 | 0.332 ± 0.003
[2], x2 = 0.6 | 730.17 ± 0.28 | 720.32 ± 0.29 | 710.3 ± 0.29 | – | – | – | 0.398 ± 0.004 | 0.358 ± 0.003 | 0.325 ± 0.003
[2], x2 = 0.65 | 735.45 ± 0.27 | 725.44 ± 0.28 | 715.27 ± 0.29 | – | – | – | 0.389 ± 0.004 | 0.35 ± 0.003 | 0.318 ± 0.003
[2], x2 = 0.7 | 741.35 ± 0.27 | 731.16 ± 0.28 | 720.79 ± 0.28 | – | – | – | 0.38 ± 0.003 | 0.343 ± 0.003 | 0.312 ± 0.003
[2], x2 = 0.75 | 747.84 ± 0.26 | 737.51 ± 0.27 | 727.01 ± 0.28 | – | – | – | 0.372 ± 0.003 | 0.336 ± 0.003 | 0.306 ± 0.003
[2], x2 = 0.8 | 755.3 ± 0.26 | 744.71 ± 0.27 | 733.99 ± 0.27 | – | – | – | 0.364 ± 0.003 | 0.329 ± 0.003 | 0.299 ± 0.003
[2], x2 = 0.85 | 763.58 ± 0.25 | 752.89 ± 0.26 | 742.02 ± 0.27 | – | – | – | 0.356 ± 0.003 | 0.322 ± 0.003 | 0.293 ± 0.003
[2], x2 = 0.9 | 773.12 ± 0.24 | 762.22 ± 0.25 | 751.12 ± 0.26 | – | – | – | 0.348 ± 0.003 | 0.315 ± 0.003 | 0.287 ± 0.003
[2], x2 = 0.95 | 784.18 ± 0.24 | 773.02 ± 0.24 | 761.68 ± 0.25 | – | – | – | 0.341 ± 0.003 | 0.309 ± 0.003 | 0.281 ± 0.003
